# Measured values published in paper PMC11783601, “Analogue-Sensitive Inhibition of Histone Demethylases Uncovers Member-Specific Function in Ribosomal Protein Synthesis” (Journal of the American Chemical Society, 2025).
# Assays:
# [1] = molecular target: T1, asKDM4A (HA-tagged F185A) in HEK293T cells (Homo sapiens, UniProt O75164, F185A); assay: Time-dependent treatment and withdrawal of inhibitor, fixed cell imaging of H3K9me3 and BrdU; type: cell-based
# T1 construct: we generated the F185A mutation in full-length KDM4A carrying all of the functional domains; host or cells: HEK293T
# T1 sequence (O75164 1-1064 F185A): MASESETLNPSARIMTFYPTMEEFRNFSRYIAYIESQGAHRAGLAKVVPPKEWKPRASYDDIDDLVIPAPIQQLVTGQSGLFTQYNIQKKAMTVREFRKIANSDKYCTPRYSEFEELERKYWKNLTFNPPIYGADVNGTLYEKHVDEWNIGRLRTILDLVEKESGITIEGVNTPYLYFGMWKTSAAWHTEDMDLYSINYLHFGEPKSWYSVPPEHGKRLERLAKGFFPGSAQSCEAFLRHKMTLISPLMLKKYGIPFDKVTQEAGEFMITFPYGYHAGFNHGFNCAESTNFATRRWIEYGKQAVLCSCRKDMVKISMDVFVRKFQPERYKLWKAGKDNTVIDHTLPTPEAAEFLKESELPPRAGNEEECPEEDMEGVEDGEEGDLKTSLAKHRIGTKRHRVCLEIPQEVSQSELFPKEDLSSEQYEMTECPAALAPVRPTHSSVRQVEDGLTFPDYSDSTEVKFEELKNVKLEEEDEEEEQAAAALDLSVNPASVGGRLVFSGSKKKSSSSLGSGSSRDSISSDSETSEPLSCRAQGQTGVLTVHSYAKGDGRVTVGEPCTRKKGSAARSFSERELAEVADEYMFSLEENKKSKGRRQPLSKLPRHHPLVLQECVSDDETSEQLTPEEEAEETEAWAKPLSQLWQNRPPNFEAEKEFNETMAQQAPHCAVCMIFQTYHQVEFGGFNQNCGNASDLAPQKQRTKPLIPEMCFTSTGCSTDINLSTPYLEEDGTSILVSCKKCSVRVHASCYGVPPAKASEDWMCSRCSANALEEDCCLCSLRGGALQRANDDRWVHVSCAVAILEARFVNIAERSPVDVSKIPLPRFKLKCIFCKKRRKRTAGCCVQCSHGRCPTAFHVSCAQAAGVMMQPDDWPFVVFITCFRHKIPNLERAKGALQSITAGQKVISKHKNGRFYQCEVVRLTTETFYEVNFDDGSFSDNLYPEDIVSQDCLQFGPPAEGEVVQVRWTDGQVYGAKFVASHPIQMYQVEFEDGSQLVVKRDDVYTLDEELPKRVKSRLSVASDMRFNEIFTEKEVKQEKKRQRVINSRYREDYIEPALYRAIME
# Method: We exploited the reversible mode of action of the allele-specific inhibitor to gain further insights into the temporal regulation of rRNA expression by histone demethylation. We reasoned that withdrawal of the reversible inhibitor from the cell-culture medium would restore the activity of asKDM4A in a temporally defined manner (Figure 8A). HEK293T cells expressing the F185A variant carrying an HA tag were treated with 6B and fixed at various time points. H3K9me3 levels were quantified in HA-positive cells to ensure that only cells with asKDM4A were considered for analysis. Within 3 h of compound treatment, a robust level of H3K9me3 ensued (Figure 8B). Subsequently, the same cells were allowed to grow in inhibitor-free media and examined for histone demethylation by fixed cell imaging.
# To investigate if the restoration of H3K9me3 demethylation is directly linked to rRNA activation, cells overexpressing asKDM4A were first treated with 6B for 3 h followed by compound removal and brief exposure to 5FU before being fixed at different time points for immunofluorescence imaging (Figure 8A,C). […] We recorded a steady recovery of BrdU signal, reaching its maximum within 4–5 h postwithdrawal (equivalent to no 6B treatment) (Figure 8C), consistent with reactivation of asKDM4A as observed above. A relatively sluggish 5FU incorporation into rRNA (Figure 8C), compared to the rapid histone demethylation (Figure 8B), is likely due to the time required to assemble active transcriptional machinery at the rRNA promoters following the removal of the silencing H3K9me3 mark. Achieving such precise temporal control of protein function would be challenging using genetic tools. Collectively, employing the mutant and cognate inhibitor pair, we mapped a highly dynamic signaling pathway linking KDM4A-mediated locus-specific histone demethylation with upregulation of rRNA expression to modulate downstream processes such as ribosomal assembly and protein synthesis. […]
# 19. Fixed cell immunofluorescence staining
# Cells were grown on poly-D-lysine (Gibco A3890401) treated glass coverslips (ThermoScientific 12-545-81P) overnight and transfected the next day with 300 ng KDM4A WT/F185A using […] of lipofectamine 2000 (Invitrogen 11668019). The cells were incubated overnight and treated with indicated inhibitor at varying time points. When probing rRNA transcription, cells were incubated with 2 mM 5-Fluorouridine (Sigma F5130) for 15 minutes. Cells were washed three times with phosphate buffered saline (PBS) at pH 7.6 (Corning 21040CV), fixed with 2% paraformaldehyde in PBS (ThermoFisher AAJ19943K2) for 15 minutes at room temperature, washed with PBS three times, and permeabilized with 0.1% tritonX (Fisher BP151-100) in PBS for 15 minutes. Next, coverslips were blocked with 2% Bovine Serum Albumin (BSA Fisher BP1600-100) in PBS for 1 hour at room temperature, coverslips were incubated with primary antibody diluted in 0.5% BSA PBS (anti-H3K9me3: Cell Signaling Technology cat: 13969S host:rabbit 1:1000; anti-HA: Cell Signaling Technology host:mouse, cat: 2367S or host:rabbit, cat: […]
# hour at room temperature, then incubated with secondary antibodies diluted in 0.5% BSA PBS (anti-mouse—488: Invitrogen host: goat, cat: A-11001 or anti-rabbit—cy3: Invitrogen host: goat, […]
# cat: A10520, both dilutions 1:1000), between each step coverslips were washed five times with 0.5% BSA PBS. The nuclei were stained with Hoechst stain 0.01 mg/mL in H2O (Sigma B2883-25MG) for 30 seconds, washed with PBS and finally adhered to a slide with gelvatol. The cells were imaged at University of Pittsburgh Center for Biological Imaging on an Olympus Fluoview […]
# 20. Quantification of fixed-cell imaging data
# TIF images obtained from confocal microscopy experiments were quantified in ImageJ. Images were converted to 8-bit images and then thresholded to remove background signal. All images within the same experiment used the same threshold values. For concentration dependent imaging […]
# wild type 2OG enzymes = assay: Off-target activity across wild type 2OG enzymes (MALDI-MS or dot blots); type: biochemical, human; settings: concentrations up to 200 μM
# From the text: We sought to examine the orthogonality of compound 6 across the human 2OG enzyme family. […] These amino acids, bulky and hydrophobic in nature, likely act as the gatekeeper and preclude binding of the NOG analogues to wild type enzymes. To test the off-target activity of 6, we recombinantly expressed the catalytic domains of 12 wild type dioxygenases, in addition to KDM4A-E, thus covering 30–40% of human 2OG enzymes known to have well-characterized substrates (Figure 3D).
# [2] = HEK293T cells expressing KDM4A-F185A, 6B for 3 h then withdrawal
Structure (SMILES),time of compound treatment until a robust level of H3K9me3 ensued ([1]; HA-positive HEK293T cells expressing F185A),"5FU incorporation after compound withdrawal [1, 2]","H3K9me3 after compound withdrawal [1, 2]","time postwithdrawal until BrdU signal reached its maximum ([1]; after 3 h 6B treatment and removal, equivalent to no 6B treatment) [h]",BrdU signal (5FU incorporation) ([1]; cells overexpressing asKDM4A treated with 6B for 3 h),"time after compound removal until asKDM4A regained its demethylase activity ([1]; inhibitor-free media, activity increased for up to 3 h) [h]",inhibition of wild type 2OG enzymes (wild type 2OG enzymes)
"CC(C)CC(NC(=O)C(=O)OCc1cccc(C(F)(F)F)c1)C(=O)O [6B, L-Leu TFMB-ester NOG]",up to 3 h,gradual increase in 5FU incorporation,rapid H3K9me3 demethylation,4 to 5,significant decrease in BrdU signal,≤ 1,
"CC(C)CC(NC(=O)C(=O)O)C(=O)O (stereo not shown) [compound 6, N-oxalyl leucine]",,,,,,,did not inhibit
